# Results reported in patent US20250250251A1, “PIPERIDINYLPYRIDINYLCARBONITRILE DERIVATIVES AS INHIBITORS OF GLUTAMINYL-PEPTIDE CYCLOTRANSFERASE AND GLUTAMINYL-PEPTIDE CYCLOTRANSFERASE LIKE PROTEIN” (Boehringer Ingelheim International GmbH, priority 2024, published 2025).
# Like-named read-outs stand apart in the source and are kept apart here.
# Experiments:
# [1] = target: T1, QPCTL (Homo sapiens, UniProt Q9NXS2); experiment: Assay A: biochemical QPCTL activity assay (MALDI-TOF MS, CD47 peptide substrate); conditions: read-out: Inhibition of QPCTL: IC50
# T1 construct: made in house
# T1 sequence (Q9NXS2 whole entry, species assumed): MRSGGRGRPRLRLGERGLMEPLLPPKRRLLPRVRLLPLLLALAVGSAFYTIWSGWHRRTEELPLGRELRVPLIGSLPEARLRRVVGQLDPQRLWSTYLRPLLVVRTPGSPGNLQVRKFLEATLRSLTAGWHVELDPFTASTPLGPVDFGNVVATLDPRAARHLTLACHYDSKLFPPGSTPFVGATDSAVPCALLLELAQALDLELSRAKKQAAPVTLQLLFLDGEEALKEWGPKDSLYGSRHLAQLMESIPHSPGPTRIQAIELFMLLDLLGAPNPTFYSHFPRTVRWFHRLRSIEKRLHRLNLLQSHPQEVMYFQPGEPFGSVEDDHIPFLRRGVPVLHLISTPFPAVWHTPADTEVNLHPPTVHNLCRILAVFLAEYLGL
# Experimental: (§1) QPCT or QPCTL dependent conversion of N-terminal glutamine to pyroglutamate of CD47 was monitored via MALDI-TOF MS. Test compounds were dissolved in 100% DMSO and serially diluted into clear 1,536-well microtiter plates. Enzymatic reactions were set up in assay buffer containing 20 mM Tris pH 7.5, 0.1 mM TCEP, 0.01% BSA, and 0.001% Tween20. […] The plates were incubated for 10 min in a humidified incubator at 24° C. Subsequently, 2.5 μL of CD47 peptide substrate surrogate (^19[…]^33) was added to each well (final concentration: 10 μM for QPCTL/20 μM for QPCT). The plates were mixed for 30 sec at 1,000 rpm and subsequently incubated for 40 min in a humidified incubator at 24° C. […] The plates were sealed with an adhesive foil, mixed for 30 s at 1,000 rpm and stored at room temperature until preparation of the MALDI target plates. MALDI target plates were prepared as described previously. […] QPCT or QPCTL activity was monitored by calculating the ratio between product and internal standard signals followed by normalization to high (100% activity) and low (0% activity) controls. Determination of compound potencies was obtained by fitting the dose-response data to a four-parameter logistical equation.
# [2] = system: CYP3A4 mRNA; experiment: Assay D: CYP induction screening assay in primary human hepatocytes; format: in vitro ADME; conditions: 48 h
# Experimental: Cryopreserved plateable human hepatocytes (single donor. BioIVT) were thawed and plated in Collagen-I coated 96-well-plates at a cell density of 0.07 million cells per well.
# After a 6 h attachment period, the seeding medium was replaced by serum-free William's medium E supplemented with Matrigel (0.25 mg/ml) and allowed to recover overnight. 24 h post-seeding, serum-free Williams E medium containing the test compound at a final concentration of […] and a final DMSO content of 0.1% and 0.1% DMSO (solvent-treated control), respectively, was added to predefined wells. Exposure solutions were renewed after 24 h.
# After 48 h of treatment in total, the effect of the test compounds on CYP3A4 mRNA expression was assessed using the QuantiGene Plex Gene Expression Assay. Hepatocytes were lysed and total RNA was extracted using the QuantiGene Sample Processing Kit according to the instructions of the manufacturer.
# mRNA quantification was conducted using a customized QuantiGene Plex Panel to analyse CYP3A4 and the housekeeper genes RPL32, EIF4E2 and GUSB according to the instructions of the manufacturer and measured on a Luminex™ instrument. Signal was reported as median fluorescence intensity (MFI), which is proportional to the number of target RNA molecules present in the sample.
# For calculation of CYP3A4 mRNA induction, the signal for CYP3A4 was normalized against the geometric mean of the signal obtained for the housekeeper genes for hepatocytes exposed to test compounds in relation to solvent-treated samples according to the following equation: […]
# [3] = system: SIRPα signalling induced by Raji cells; experiment: Assay B: SIRPα signalling assay using Raji cells; format: cell-based; conditions: Homo sapiens, read-out: Inhibition of SIRPα signalling induced by Raji cells: IC50
# Experimental: Bioassay reagent 1 of the PathHunter Bioassay detection kit (DiscoverX 93-0001) was added to each well of the plate using a multichannel pipette followed by a 15 min incubation at room temperature. Afterwards bioassay reagent 2 was added followed by 60 min incubation at room temperature (incubation in the dark).
# (§2) The analysis of the data was performed using the luminescence signal generated by beta-galactosidase in the PathHunter reporter cell line. The luminescence measurement was done using a Pherastar Multi-Mode Reader.
# [4] = Assay C: permeability in CACO-2 cells; format: in vitro ADME; conditions: human; for efflux ratio: read-out: Efflux Ratio
# Experimental: Caco-2 cells (1-2×10^5 cells/1 cm^2 area) are seeded on filter inserts (Costar transwell polycarbonate or PET filters, 0.4 μm pore size) and cultured (DMEM) for 10 to 25 days. Compounds are dissolved in appropriate solvent (like DMSO, 1-20 mM stock solutions). […] The transport solution (TL) is applied to the apical or basolateral donor side for measuring A-B or B-A permeability (3 filter replicates), respectively. Samples are collected at the start and end of experiment from the donor and at various time intervals for up to 2 hours also from the receiver side for concentration measurement by HPLC-MS/MS or scintillation counting. Sampled receiver volumes are replaced with fresh receiver solution.
# Efflux ratio (ER)=permeability B−A/permeability A−B
# [5] = target: T2, QPCT (Homo sapiens, UniProt Q16769); experiment: Assay A: biochemical QPCT activity assay (MALDI-TOF MS, CD47 peptide substrate); conditions: read-out: Inhibition of QPCT: IC50
# T2 construct: purchased Origine (OriGene) TP700028
# T2 sequence (Q16769 29-361): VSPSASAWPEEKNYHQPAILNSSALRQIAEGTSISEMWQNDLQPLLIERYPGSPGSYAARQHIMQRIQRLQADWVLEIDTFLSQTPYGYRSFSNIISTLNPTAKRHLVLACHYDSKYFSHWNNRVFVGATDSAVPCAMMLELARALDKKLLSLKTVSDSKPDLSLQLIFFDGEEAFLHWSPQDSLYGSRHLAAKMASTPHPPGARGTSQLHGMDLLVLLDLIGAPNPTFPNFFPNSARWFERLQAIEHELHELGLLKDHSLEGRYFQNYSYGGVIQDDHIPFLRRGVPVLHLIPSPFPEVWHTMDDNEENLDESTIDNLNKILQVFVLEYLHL
# Experimental: as §1
# [6] = system: murine hepatocytes; experiment: Assay E: stability in murine hepatocytes; format: in vitro ADME, mouse; conditions: 1 μM, 5% species serum
# Experimental: The metabolic degradation of the test compound is assayed in a murine hepatocyte suspension.
# Murine hepatocytes (typically cryopreserved) are incubated in an appropriate buffer system (e.g. Dulbecco's modified eagle medium plus 3.5 μg glucagon/500 mL, 2.5 mg insulin/500 mL and 3.75 mg/500 mL hydrocortison) containing 5% species serum.
# Following a (typically) 30 min preincubation in an incubator (37° C., 10% CO2) 5 μl of test compound solution (80 μM; from 2 mM in DMSO stock solution diluted 1:25 with medium) are added into 395 μl hepatocyte suspension (cell density in the range 0.25-5 Mio cells/mL, typically 1 Mio cells/mL; final concentration of test compound 1 μM, final DMSO concentration 0.05%).
# The cells are incubated for six hours (incubator, orbital shaker) and samples (25 μl) are taken at 0, 0.5, 1, 2, 4 and 6 hours. Samples are transferred into acetonitrile and pelleted by centrifugation (5 min). The supernatant is transferred to a new 96-deepwell plate, evaporated under nitrogen and resuspended.
# Decline of parent compound is analyzed by HPLC-MS/MS
# CLint is calculated as follows CL_[…]=Dose/AUC=(C0/CD)/(AUD+clast/k)×1000/60. C0: initial concentration in the incubation [μM], CD: cell density of vital cells [10e6 cells/mL], AUD: area under the data [μM×h], clast: concentration of last data point [μM], k: slope of the regression line for parent decline [h−1].
# The calculated in vitro hepatic intrinsic clearance can be scaled up to the intrinsic in vivo hepatic Clearance and used to predict hepatic in vivo blood clearance (CL) by the use of a liver model (well stirred model).
# [formula] [formula] [formula] • Hepatocellularity, mouse: 120×10e6 cells/g liver • Liver factor, mouse: 55 g/kg bodyweight • Blood flow, mouse: 90 ml/(min×kg)
# [7] = system: SIRPα signalling induced by A549 cells; experiment: Assay B: SIRPα signalling assay using A549 cells; format: cell-based; conditions: Homo sapiens, read-out: Inhibition of SIRPα signalling induced by A549 cells: IC50
# Experimental: Two cell types are independently used: the Raji cell line (lymphoblast-like human cell line derived from B lymphocytes from a Burkitt's lymphoma patient in 1963) and A549 cells (adenocarcinoma human alveolar basal epithelial cells).
# Test compounds were dissolved in 100% DMSO and serially diluted into a white 384-well microtiter cell culture plate (PerkinElmer #60076780 in case of Raji assay; PDL-coated plates Greiner #781945 in case of A549 assay). 5000 Raji cells (ATCC #CC86) or 5000 A549 cells (ATCC #CCL-185) in Assay Complete Cell Plating reagent 30 (DiscoverX 93-0563R30B) were added per well. The assay plate was incubated for 48 h at 37° C., 95% humidity and 5% CO2. 15000 reporter cells (Jurkat PathHunter SIRPαV1, DiscoverX #93-1135C19) were added to each well, and the plate was incubated for 5 h at 37° C., 95% humidity and 5% CO2. Bioassay reagent 1 of the PathHunter Bioassay detection kit (DiscoverX 93-0001) was added to each well of the plate using a multichannel pipette followed by a 15 min incubation at room temperature. Afterwards bioassay reagent 2 was added followed by 60 min incubation at room temperature (incubation in the dark).
# as §2, with “Reader. Dose-response curves & IC50 data were calculated with 4-parameter sigmoidal dose response formula.” for “Reader.”
# [8] = Table 2, compounds of the invention
# [9] = Table 9, compounds of the invention
# [10] = Table 4, compounds of the invention
# [11] = pH 7.2, Table 7, compounds of the invention, CACO-2 cells
# [12] = pH 7.2, Table 7, compounds of the invention, CACO-2 cells, permeability B-A/permeability A-B
# [13] = Table 12, compounds of the invention
"IC50 ([1]; Table 3, prior art compounds)","n-fold induction of CYP3A4 at 10 μM ([2]; Table 10, prior art compounds)","IC50 ([3]; Table 5, prior art compounds)","Papp A→B ([4]; Caco-2, pH 7.2)","efflux ratio ([4]; Caco-2, pH 7.2)","IC50 ([5]; Table 3, prior art compounds)","Mouse Hepatocyte Stability QH ([6]; Table 13, prior art compounds)","IC50 ([7]; Table 5, prior art compounds)","IC50 [1, 8]","n-fold induction of CYP3A4 at 10 μM [2, 9]","IC50 [3, 10]","Papp A→B [4, 11]","efflux ratio [4, 12]","IC50 [5, 8]","Mouse Hepatocyte Stability QH [6, 13]","IC50 [7, 10]",Structure (SMILES)
–,–,–,–,–,–,–,–,3 nM,4.2 n-fold,10 nM,11 ×10⁻⁶ cm/s,6.4,3 nM,<12%,7 nM,Cn1cnnc1C1(F)CCN(c2c(C#N)cc(C(C)(F)F)nc2-c2cnc3nn(C(F)(F)F)cc3c2)CC1 [Example 3]
–,–,–,–,–,–,–,–,1 nM,2.1 n-fold,31 nM,3.3 ×10⁻⁶ cm/s,13,3 nM,16%,6 nM,Cc1cc(C#N)c(N2CCC(F)(c3nncn3C)CC2)c(-c2cnc3nn(C(F)(F)F)cc3c2)n1 [Example 5]
–,–,–,–,–,–,–,–,2 nM,0.6 n-fold,226 nM,0.6 ×10⁻⁶ cm/s,36.1,6 nM,<12%,82 nM,Cn1cnnc1C1(F)CCN(c2c(C#N)cc(C3CC3(F)F)nc2-c2ccnnc2)CC1 (stereo not drawn) [Example 6]
–,–,–,–,–,–,–,–,28 nM,–,117 nM,14 ×10⁻⁶ cm/s,5.3,11 nM,<12%,44 nM,Cn1cnnc1C1(F)CCN(c2c(C#N)cc(C(F)(F)F)nc2-c2cc3cn(C(C)(C)C)nc3nc2C(F)F)CC1 [Example 14]
–,–,–,–,–,–,–,–,3 nM,6.0 n-fold,11 nM,34 ×10⁻⁶ cm/s,1.8,1 nM,–,17 nM,Cn1cnnc1C1(F)CCN(c2c(C#N)cc(C(F)(F)F)nc2-c2cnc3nn(C(C)(C)C)c(C(F)F)c3c2)CC1 [Example 16]

# The next lines start with the molecule.
Structure (SMILES),"IC50 ([1]; Table 3, prior art compounds)","n-fold induction of CYP3A4 at 10 μM ([2]; Table 10, prior art compounds)","IC50 ([3]; Table 5, prior art compounds)","Papp A→B ([4]; Caco-2, pH 7.2)","efflux ratio ([4]; Caco-2, pH 7.2)","IC50 ([5]; Table 3, prior art compounds)","Mouse Hepatocyte Stability QH ([6]; Table 13, prior art compounds)","IC50 ([7]; Table 5, prior art compounds)","IC50 [1, 8]","n-fold induction of CYP3A4 at 10 μM [2, 9]","IC50 [3, 10]","Papp A→B [4, 11]","efflux ratio [4, 12]","IC50 [5, 8]","Mouse Hepatocyte Stability QH [6, 13]","IC50 [7, 10]"
"Cn1cnnc1C1CCN(c2c(C#N)cccc2-c2cncc3c2cnn3C)CC1 [Compound 4, reference compound]",97 nM,0.8 n-fold,> 10000 nM,0.3 ×10⁻⁶ cm/s,28.1,313 nM,92%,4500 nM,–,–,–,–,–,–,–,–
"Cn1cnnc1C1CCN(c2c(C#N)cccc2-c2ccc3ocnc3c2)CC1 [Compound 15, reference compound]",554 nM,8.7 n-fold,5990 nM,11 ×10⁻⁶ cm/s,5.4,1080 nM,65%,3150 nM,–,–,–,–,–,–,–,–
"Cn1cnnc1C1CCN(c2c(C#N)cccc2-c2ccc3nonc3c2)CC1 [Compound 19, reference compound]",117 nM,15.8 n-fold,2810 nM,19 ×10⁻⁶ cm/s,3.4,106 nM,62%,296 nM,–,–,–,–,–,–,–,–
"Cn1cnnc1C1CCN(c2c(C#N)cccc2-c2cnc3cn[nH]c3c2)CC1 [Compound 125, reference compound]",159 nM,2.1 n-fold,4490 nM,0.6 ×10⁻⁶ cm/s,30.4,446 nM,45%,> 10000 nM,–,–,–,–,–,–,–,–
Cn1cnnc1C1(F)CCN(c2c(C#N)cc(C3CC3)nc2-c2ccnnc2)CC1 [Example 1],–,–,–,–,–,–,–,–,1 nM,1.2 n-fold,107 nM,6.3 ×10⁻⁶ cm/s,7,2 nM,49%,15 nM
Cn1cnnc1C1(F)CCN(c2c(C#N)cc(C3CC3)nc2-c2cnc3nn(C(F)(F)F)cc3c2)CC1 [Example 2],–,–,–,–,–,–,–,–,1 nM,4.6 n-fold,20 nM,37 ×10⁻⁶ cm/s,1.6,1 nM,49%,14 nM
"Cn1cncc1C1CCN(c2c(C#N)cccc2-c2ccc(F)nc2)CC1 [QP5038, reference compound]",–,58.5 n-fold,21 nM,–,–,–,97%,6 nM,–,–,–,–,–,–,–,–
